{
  "source": "patent US20140171431A1",
  "about": "“AZOLE HETEROCYCLIC COMPOUND, PREPARATION METHOD, PHARMACEUTICAL COMPOSITION AND USE” (priority 2011, published 2014)",
  "biological_target": "T1, Lp-PLA2 in rabbit serum (Oryctolagus cuniculus, UniProt G1SE06)",
  "T1 construct": "from tissue; host or cells: rabbit serum",
  "T1 sequence (G1SE06 22-423)": "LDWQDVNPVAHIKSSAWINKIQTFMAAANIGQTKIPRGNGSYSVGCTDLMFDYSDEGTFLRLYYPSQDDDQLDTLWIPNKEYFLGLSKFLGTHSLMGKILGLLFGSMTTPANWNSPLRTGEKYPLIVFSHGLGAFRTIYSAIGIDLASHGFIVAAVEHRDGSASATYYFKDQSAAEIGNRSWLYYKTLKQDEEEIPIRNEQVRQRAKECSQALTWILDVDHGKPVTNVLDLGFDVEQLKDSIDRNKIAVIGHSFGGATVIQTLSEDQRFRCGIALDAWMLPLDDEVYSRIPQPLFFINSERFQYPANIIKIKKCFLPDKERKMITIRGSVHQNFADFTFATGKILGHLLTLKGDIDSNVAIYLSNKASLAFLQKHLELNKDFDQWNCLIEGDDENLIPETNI",
  "experiment": "In vitro inhibitory activity towards the enzyme Lp-PLA2 in rabbit serum, [3H]PAF substrate",
  "type": "biochemical",
  "conditions": "rabbit serum; for inhibition at 0.1 µM: 100 nM, read-out: inhibition, %",
  "description": "The activities of compounds were measured using [^3H] labeled platelet activating factor ([^3H]PAF, Perkinelmer, Lot NET910) as the substrate. The reaction was carried out in a system containing 50 mmol/L HEPES and 150 mmol/L NaCl (pH 7.4) in a total volume of 200 μl. First, 10 μL rabbit serum and 10 μl DMSO solution of the test compound were added to the system and preincubated for 10 min at 37° C. Then 20 nM [^3H]PAF was added as listed in table 1 to start the reaction and incubated for a further 10 min at 37° C. After that, 600 μl of CHCl3/MeOH (2:1) was added and the resulting mixture was vortex mixed and the reaction was stopped. After settled for a while, the mixture was centrifugated at 12000×g for 15 min. The supernatant was transferred to a new tube and 200 μl of CHCl3 was added. The mixture was mixed by vortexing and then settled or centrifugated for 2 min. A 100 μl portion of the supernatant was then collected for radioactivity intensity measurement.\nThe inhibition rate was determined by the following equation:\nInhibitory rate (%)=1−(DPMcompound tube−DPMblank tube)/(DPMcontrol tube−DPMblank tube)*100%\n(Note: DPM is radioactivity intensity unit.)",
  "data": [
    {"smiles": "Cn1cc(Cc2cn(Cc3nccn3Cc3ccc(-c4ccc(C(F)(F)F)cc4)cc3)c(SCc3ccc(F)cc3)nc2=O)cn1", "note": "[Example 29, 2-(4-fluorobenzylthio)-5-((1-methyl-1H-pyrazol-4-yl)methyl)-1-((1-((4′-(trifluoromethyl)biphenyl-4-yl)methyl)-1H-imidazol-2-yl)methyl)pyrimidin-4(1H)-one]", "values": [
      {"measurement": "inhibition at 0.1 µM", "value": 12.6, "unit": "%"},
      {"measurement": "inhibition at 1 µM", "value": 64.9, "unit": "%"}
    ]},
    {"smiles": "CCn1c(CCCc2ccccc2)nnc1Cn1c(SCc2ccc(F)cc2)nc(=O)c2c1CCC2", "note": "[Example 59, 1-((4-ethyl-5-(3-phenylpropyl)-4H-1,2,4-triazol-3-yl)methyl)-2-(4-fluorobenzylthio)-6,7-dihydro-1H-cyclopenta[d]pyrimidin-4(5H)-one]", "values": [
      {"measurement": "inhibition at 10 µM", "value": 9.3, "unit": "%"}
    ]},
    {"smiles": "Cn1cc(Cc2cn(Cc3nc4ccccc4n3Cc3ccc(-c4ccc(C(F)(F)F)cc4)cc3)c(SCc3ccc(F)cc3)nc2=O)cn1", "note": "[Example 54, 2-(4-fluorobenzylthio)-5-((1-methyl-1H-pyrazol-4-yl)methyl)-1-((1-((4′-(trifluoromethyl)biphenyl-4-yl)methyl)-1H-benzo[d]imidazol-2-yl)methyl)pyrimidin-4 (1H)-one]", "values": [
      {"measurement": "inhibition at 0.1 µM", "value": 35.9, "unit": "%"},
      {"measurement": "inhibition at 1 µM", "value": 88.8, "unit": "%"}
    ]},
    {"smiles": "CC(C)(C(=O)O)N1CCN(Cc2nnc(Cn3c(SCc4ccc(F)cc4)nc(=O)c4c3CCC4)n2Cc2ccc(-c3ccc(C(F)(F)F)cc3)cc2)CC1", "note": "[Example 89, 2-(4-((5-((2-(4-fluorobenzylthio)-4-oxo-4,5,6,7-tetrahydro-1H-cyclopenta[d]pyrimidin-1-yl)methyl)-4-((4′-(trifluoromethyl)biphenyl-4-yl)methyl)-4H-1,2,4-triazol-3-yl)methyl)piperazin-1-yl)-2-methylpropanoic acid]", "values": [
      {"measurement": "inhibition at 0.1 µM", "value": 13.4, "unit": "%"}
    ]},
    {"smiles": "CCn1c(Cc2ccc(-c3ccc(C(F)(F)F)cc3)cc2)nnc1Cn1c(SCc2ccc(F)cc2)nc(=O)c2c1CCC2", "note": "[Example 60, 1-((4-ethyl-5-((4′-(trifluoromethyl)biphenyl-4-yl)methyl)-4H-1,2,4-triazol-3-yl)methyl)-2-(4-fluorobenzylthio)-6,7-dihydro-1H-cyclopenta[d]pyrimidin-4(5H)-one]", "values": [
      {"measurement": "inhibition at 10 µM", "value": 40, "unit": "%"}
    ]},
    {"smiles": "O=c1nc(SCc2ccc(F)cc2)n(CC2=NOC(c3ccc(-c4ccc(C(F)(F)F)cc4)cc3)N2)c2c1CCC2", "note": "(stereo not shown) [Example 7, 2-(4-fluorobenzylthio)-1-((5-(4′-(trifluoromethyl)biphen-yl-4-yl)-4,5-dihydro-1,2,4-oxadiazol-3-yl)methyl)-6,7-dihydro-1H-cyclo-penta[d]pyrimidin-4(5H)-one]", "values": [
      {"measurement": "inhibition at 1 µM", "value": 25, "unit": "%"},
      {"measurement": "inhibition at 10 µM", "value": 60.3, "unit": "%"}
    ]},
    {"smiles": "CCOC(=O)N1CCC(N2C(Cn3c(SCc4ccc(F)cc4)nc(=O)c4c3CCC4)=NOC2c2ccc(-c3ccc(C(F)(F)F)cc3)cc2)CC1", "note": "(stereo not shown) [Example 22]", "values": [
      {"measurement": "inhibition at 10 µM", "value": 63, "unit": "%"}
    ]},
    {"smiles": "CCOC(=O)N1CCC(N2C(Cn3c(SCc4cccc(F)c4F)nc(=O)c4c3CCC4)=NOC2c2ccc(-c3ccc(C(F)(F)F)cc3)cc2)CC1", "note": "(stereo not shown) [Example 21, ethyl 4-(3-((2-(2,3-difluorobenzylthio)-4-oxo-4,5,6,7-tetrahydro-1H-cyclopenta[d]pyrimidin-1-yl)methyl)-5-(4′-(trifluoromethyl)biphenyl-4-yl)-1,2,4-oxadiazol-4(5H)-yl)piperidine-1-carboxylate]", "values": [
      {"measurement": "inhibition at 10 µM", "value": 51.2, "unit": "%"}
    ]},
    {"smiles": "Cc1cnc(Cn2c(SCc3ccc(F)cc3)nc(=O)c3c2CCC3)n1Cc1ccc(-c2ccc(C(F)(F)F)cc2)cc1", "note": "[Example 40, 2-(4-fluorobenzylthio)-1-((5-methyl-1-((4′-(trifluoromethyl)biphenyl-4-yl)methyl)-1H-imidazol-2-yl)methyl)-6,7-dihydro-1H-cyclopenta[d]pyrimidin-4 (5H)-one]", "values": [
      {"measurement": "inhibition at 0.1 µM", "value": 53.1, "unit": "%"},
      {"measurement": "inhibition at 1 µM", "value": 90.7, "unit": "%"}
    ]},
    {"smiles": "O=c1nc(SCc2cccc(F)c2F)n(CC2=NOC(c3ccc(-c4ccc(C(F)(F)F)cc4)cc3)N2CCN2CCOCC2)c2c1CCC2", "note": "(stereo not shown) [Example 19, 2-(2,3-difluorobenzylthio)-1-((4-(2-morpholinoethyl)-5-(4′-(trifluoromethyl)biphenyl-4-yl)-4,5-dihydro-1,2,4-oxadiazol-3-yl)methyl)-6,7-dihydro-1H-cyclopenta[d]pyrimidin-4(5H)-one]", "values": [
      {"measurement": "inhibition at 1 µM", "value": 29, "unit": "%"},
      {"measurement": "inhibition at 10 µM", "value": 76.8, "unit": "%"}
    ]},
    {"smiles": "CCn1c(Cn2cc(Cc3cnn(C)c3)c(=O)nc2SCc2ccc(F)cc2)nnc1-c1ccc(-c2ccc(C(F)(F)F)cc2)cc1", "note": "[Example 58, 1-((4-ethyl-5-(4′-(trifluoromethyl)biphenyl-4-yl)-4H-1,2,4-triazol-3-yl)methyl)-2-(4-fluorobenzylthio)-5-((1-methyl-1H-pyrazol-4-yl)methyl)pyrimidin-4 (1H)-one]", "values": [
      {"measurement": "inhibition at 1 µM", "value": 32, "unit": "%"},
      {"measurement": "inhibition at 10 µM", "value": 94.8, "unit": "%"}
    ]},
    {"smiles": "CCn1c(Cn2c(SCc3ccc(F)cc3)nc(=O)c3c2CCC3)nnc1-c1ccc(-c2ccc(C(F)(F)F)cc2)cc1", "note": "[Example 55, 1-((4-ethyl-5-(4′-(trifluoromethyl)biphenyl-4-yl)-4H-1,2,4-triazol-3-yl)methyl)-2-(4-fluorobenzylthio)-6,7-dihydro-1H-cyclopenta[d]pyrimidin-4(5H)-one]", "values": [
      {"measurement": "inhibition at 1 µM", "value": 21, "unit": "%"},
      {"measurement": "inhibition at 10 µM", "value": 33.6, "unit": "%"}
    ]},
    {"smiles": "CCCCCCCC1NC(Cn2c(SCc3ccc(F)cc3)cc(=O)c3ccccc32)=NO1", "note": "(stereo not shown) [Example 3, 2-(4-fluorobenzylthio)-1-((5-n-heptyl-4,5-dihydro-1,2,4-oxadiazol-3-yl)methyl)quinolin-4(1H)-one]", "values": [
      {"measurement": "inhibition at 10 µM", "value": 12.5, "unit": "%"}
    ]},
    {"smiles": "CCCCCCCCCCCCn1ccnc1Cn1c(SCc2ccc(F)cc2)nc(=O)c2c1CCC2", "note": "[Example 30, 1-((1-n-dodecyl-1H-imidazol-2-yl)methyl)-2-(4-fluorobenzylthio)-6,7-dihydro-1H-cyclopenta[d]pyrimidin-4(5H)-one]", "values": [
      {"measurement": "inhibition at 1 µM", "value": 42.3, "unit": "%"},
      {"measurement": "inhibition at 10 µM", "value": 87.5, "unit": "%"}
    ]},
    {"smiles": "Cc1cnc(Cn2cc(Cc3cnn(C)c3)c(=O)nc2SCc2ccc(F)cc2)n1Cc1ccc(-c2ccc(C(F)(F)F)cc2)cc1", "note": "[Example 41, 2-(4-fluorobenzylthio)-1-((5-methyl-1-((4′-(trifluoromethyl)biphenyl-4-yl)methyl)-1H-imidazol-2-yl)methyl)-5-((1-methyl-1H-pyrazol-4-yl)methyl)pyrimidin-4(1H)-one]", "values": [
      {"measurement": "inhibition at 0.1 µM", "value": 12.6, "unit": "%"},
      {"measurement": "inhibition at 1 µM", "value": 64.9, "unit": "%"}
    ]},
    {"smiles": "CCN(CC)CCn1c(-c2ccc(-c3ccc(C(F)(F)F)cc3)cc2)cnc1Cn1c(SCc2ccc(F)cc2)nc(=O)c2c1CCC2", "note": "[Example 38, 1-((1-(2-(diethylamino)ethyl)-5-(4′-(trifluoromethyl)biphenyl-4-yl)-1H-imidazol-2-yl)methyl)-2-(4-fluorobenzylthio)-6,7-dihydro-1H-cyclopenta[d]pyrimidin-4(5H)-one]", "values": [
      {"measurement": "inhibition at 1 µM", "value": 16, "unit": "%"},
      {"measurement": "inhibition at 10 µM", "value": 20.4, "unit": "%"}
    ]},
    {"smiles": "O=c1nc(SCc2ccc(F)cc2)n(Cc2ncc(-c3ccccc3)[nH]2)c2c1CCC2", "note": "[Example 26, 2-(4-fluorobenzylthio)-1-((5-phenyl-1H-imidazol-2-yl)methyl)-6,7-dihydro-1H-cyclopenta[d]pyrimidin-4(5H)-one]", "values": [
      {"measurement": "inhibition at 10 µM", "value": 7.4, "unit": "%"}
    ]},
    {"smiles": "O=c1nc(SCc2ccc(F)cc2)n(Cc2nccn2Cc2ccc(-c3ccc(Cl)cc3)cc2)c2c1CCC2", "note": "[Example 32, 1-((1-((4′-chlorobiphenyl-4-yl)methyl)-1H-imidazol-2-yl)methyl)-2-(4-fluorobenzylthio)-6,7-dihydro-1H-cyclopenta[d]pyrimidin-4(5H)-one]", "values": [
      {"measurement": "inhibition at 0.1 µM", "value": 2.1, "unit": "%"},
      {"measurement": "inhibition at 1 µM", "value": 50, "unit": "%"}
    ]},
    {"smiles": "O=c1nc(SCc2ccc(F)cc2)n(CC2=NOC(c3ccc(-c4ccc(C(F)(F)F)cc4)cc3)N2CCN2CCOCC2)c2c1CCC2", "note": "(stereo not shown) [Example 25, 2-(4-fluorobenzylthio)-1-((4-(2-morpholinoethyl)-5-(4′-(trifluoromethyl)bi-phenyl-4-yl)-4,5-dihydro-1,2,4-oxadiazol-3-yl)meth-yl)-6,7-dihydro-1H-cy-clopenta[d]pyrimidin-4(5H)-one]", "values": [
      {"measurement": "inhibition at 1 µM", "value": 23, "unit": "%"},
      {"measurement": "inhibition at 10 µM", "value": 74.3, "unit": "%"}
    ]}
  ]
}
